The target of assay [1] is T1, HCV NS5B RNA-dependent RNA polymerase (Hepatitis C virus genotype 1b, UniProt P26663).
T1 construct: RNA-dependent RNA polymerase (NS5B) of the hepatitis C virus (HCV)
Nature of the assay: Assay for inhibition of HCV NS5B polymerase (heteromeric RNA template, 3H-UTP incorporation). The class given is biochemical. The settings on record: activity ranges. As for the experimental part: The effectiveness of the compounds of the present invention as inhibitors of HCV NS5B RNA-dependent RNA polymerase (RdRp) was measured in the following assay.
A. Assay for Inhibition of HCV NS5B Polymerase:
This assay was used to measure the ability of the nucleoside derivatives of the present invention to inhibit the enzymatic activity of the RNA-dependent RNA polymerase (NS5B) of the hepatitis C virus (HCV) on a heteromeric RNA template.
Assay Buffer Conditions: (52.5 μL-total/reaction) • 20 mM Tris, pH 7.5 • 45 mM KCl • 2 mM MgCl2 • 0.01% Triton X-100 • 1 μg BSA, DNase Free • 1 mM DTT • 2 nM DC55-1b.BK or 10 nM DC55-2b.2 • 20 nM heterogeneous template dCoh • UTP 1 uM • ATP 1 uM • CTP 1 uM • GTP 1 uM • 3H-UTP 1,000,000 cpm • 2.5 μl reaction inhibitor compound in H2O
The compounds were tested at various concentrations up to 100 μM final concentration. Nucleoside derivatives were pipetted into wells of a 96-well plate. The enzyme diluted in the reaction buffer was pipetted into the wells and incubated at room temperature for 10 minutes; then the template dCoh was added and incubated for 10 minutes at room temperature. The reaction was initiated by addition of a mixture of nucleotide triphosphates (NTP's), including the radiolabeled UTP, and allowed to proceed at room temperature for 2 hours. Blank samples were done omitting the dCoh template. The reaction was quenched by addition of 50 ul TCA 20% (trichloroacetic acid)/NaPPi 20 mM and the plates were put in ice for 5 minutes. Then, the mixtures were filtered onto Unifilter GF/B 96-well plates (PerkinElmer), washed with TCA 2.5%. P 50 ul/well of scintillator solution (Microscint 20, PerkinElmer) were added and the plates were counted in a scintillator counter.
The percentage of inhibition was calculated according to the following equation: % Inhibition=[1−(cpm in test reaction−cpm in blank)/(cpm in control reaction−cpm in blank)]×100.
Representative compounds were tested in the HCV NS5B polymerase assay and results are reported as IC50 activity ranges in Table B

The subject of assay [2] is HuH-7 cells containing a subgenomic HCV Replicon. Nature of the assay: Assay for inhibition of HCV RNA replication (subgenomic replicon, in situ RNase protection SPA). Type of assay: cell-based. The settings on record: Hepatitis C virus; HCV replication assay in HuH-7 replicon cells, activity ranges. As for the experimental part:
B. Assay for Inhibition of HCV RNA Replication:
The compounds of the present invention were also evaluated for their ability to affect the replication of Hepatitis C Virus RNA in cultured hepatoma (HuH-7) cells containing a subgenomic HCV Replicon. The details of the assay are described below. This Replicon assay is a modification of that described in V. Lohmann, F. Korner, J-O. Koch, U. Herian, L. Theilmann, and R. Bartenschlager, “Replication of a Sub-genomic Hepatitis C Virus RNAs in a Hepatoma Cell Line,” Science 285:110 (1999).
The assay was an in situ Ribonuclease protection, Scintillation Proximity based-plate assay (SPA). 10,000-40,000 cells were plated in 100-200 μL of media containing 0.8 mg/mL G418 in 96-well cytostar plates (Amersham). Compounds were added to cells at various concentrations up to 100 μM in 1% DMSO at time 0 to 18 h and then cultured for 24-96 h. Cells were fixed (20 min, 10% formalin), permeabilized (20 min, 0.25% Triton X-100/PBS) and hybridized (overnight, 50° C.) with a single-stranded ^33P RNA probe complementary to the (+) strand NS5B (or other genes) contained in the RNA viral genome. Cells were washed, treated with RNAse, washed, heated to 65° C. and counted in a Top-Count Inhibition of replication was read as a decrease in counts per minute (cpm).
Human HuH-7 hepatoma cells, which were selected to contain a subgenomic replicon, carry a cytoplasmic RNA consisting of an HCV 5′ non-translated region (NTR), a neomycin selectable marker, an EMCV IRES (internal ribosome entry site), and HCV non-structural proteins NS3 through NS5B, followed by the 3′ NTR.
Representative compounds were tested in the HCV replication assay and results are reported as EC50 activity ranges in Table C
On the technique in general: Replicon systems follow genome replication, usually without infectious particles.

T1 sequence (P26663 2420-2955): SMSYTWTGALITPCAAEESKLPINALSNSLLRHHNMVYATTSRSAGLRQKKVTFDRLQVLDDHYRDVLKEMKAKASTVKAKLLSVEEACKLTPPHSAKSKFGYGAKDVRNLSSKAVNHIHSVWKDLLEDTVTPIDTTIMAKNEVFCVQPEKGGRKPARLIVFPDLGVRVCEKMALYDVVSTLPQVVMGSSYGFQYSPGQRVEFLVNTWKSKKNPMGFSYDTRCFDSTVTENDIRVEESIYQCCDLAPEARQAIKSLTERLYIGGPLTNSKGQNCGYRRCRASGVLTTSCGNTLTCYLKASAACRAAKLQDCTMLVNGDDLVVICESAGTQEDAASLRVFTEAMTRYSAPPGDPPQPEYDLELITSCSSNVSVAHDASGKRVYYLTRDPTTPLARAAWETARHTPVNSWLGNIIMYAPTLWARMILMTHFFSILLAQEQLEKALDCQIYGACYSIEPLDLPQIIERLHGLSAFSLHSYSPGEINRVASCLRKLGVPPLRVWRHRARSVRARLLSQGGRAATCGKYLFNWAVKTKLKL

As a reminder, the IC50 is the concentration that gives 50% inhibition. The compound `C[C@@]1(O)[C@H](O)[C@@H](COP(=O)(O)OP(=O)(O)OP(=O)(O)O)O[C@H]1n1cc2c3c(ncnc31)NC(=O)c1sccc1-2` [Compound 8, 2-[5-O-(hydroxy{[hydroxy(phosphonooxy)phosphoryl]oxy}phosphoryl)-2-C-methyl-beta-D-ribofuranosyl]-2,6-dihydro-7H-8-thia-2,3,5,6-tetraazabenzo[cd]cyclopenta[h]azulen-7-one] displayed a half-inhibitory concentration (IC50) in assay [1] of under 1 µM.

Regarding `C[C@@]1(O)[C@H](O)[C@@H](COP(=O)(O)OP(=O)(O)OP(=O)(O)O)O[C@H]1n1cc2c3c(ncnc31)NCc1ccccc1-2` [Compound 6, 2-[5-O-(hydroxy{[hydroxy(phosphonooxy)phosphoryl]oxy}phosphoryl)-2-C-methyl-beta-D-ribofuranosyl]-6,7-dihydro-2H-2,3,5,6-tetraazadibenzo[cd,h]azulene], the IC50 in assay [1] fell in the range of 1 to 30 µM.

Usually EC50 stands for the midpoint of the concentration-response curve. For the compound `CC1(O)C(n2cc3c4c(ncnc42)NCc2sccc2-3)O[C@H](CO)[C@H]1O` (single isomer, unassigned) [Compound 4, 2-(2-C-methyl-beta-D-ribofuranosyl)-6,7-dihydro-2H-8-thia-2,3,5,6-tetraazabenzo[CD]cyclopenta[H]azulene], in assay [2], the 50% effective concentration (EC50) is under 30 µM.

Turning to `C[C@@]1(O)[C@H](O)[C@@H](COP(=O)(O)OP(=O)(O)OP(=O)(O)O)O[C@H]1n1cc2c3c(ncnc31)NCc1sccc1-2` [Compound 7, 2-[5-O-(hydroxy{[hydroxy(phosphonooxy)phosphoryl]oxy}phosphoryl)-2-C-methyl-beta-D-ribofuranosyl]-6,7-dihydro-2H-8-thia-2,3,5,6-tetraazabenzo[cd]cyclopenta[h]azulene], in assay [1], the half-maximal inhibitory concentration (IC50) was 1 to 30 µM.

With `C[C@@]1(O)[C@H](O)[C@@H](CO)O[C@H]1n1cc2c3c(ncnc31)NC(=O)c1ccccc1-2` [Compound 1, 2-(2-C-methyl-beta-D-ribofuranosyl)-2,6-dihydro-7H-2,3,5,6-tetraazadibenzo[C,D,H]azulen-7-one], the EC50 in assay [2] is under 30 µM.

Compound `C[C@@]1(O)[C@H](O)[C@@H](CO)O[C@H]1n1cc2c3c(ncnc31)NCc1ccccc1-2` [Compound 2, 2-(2-C-methyl-beta-D-ribofuranosyl)-6,7-dihydro-2H-2,3,5,6-tetraazadibenzo[cd,h]azulene] yielded a 50% effective concentration (EC50) in assay [2] of 30 to 50 µM.

In assay [1], `C[C@@]1(O)[C@H](O)[C@@H](COP(=O)(O)OP(=O)(O)OP(=O)(O)O)O[C@H]1n1cc2c3c(ncnc31)NC(=O)c1ccccc1-2` [Compound 5, 2-[5-O-(hydroxy{[hydroxy(phosphonooxy)phosphoryl]oxy}phosphoryl)-2-C-methyl-beta-D-ribofuranosyl]-2,6-dihydro-7H-2,3,5,6-tetraazadibenzo[cd,h]azulen-7-one] registered an IC50 of under 1 µM.

`CC1(O)C(n2cc3c4c(ncnc42)NC(=O)c2sccc2-3)O[C@H](CO)[C@H]1O` (single isomer, unassigned) [Compound 3, 2-(2-C-methyl-beta-D-ribofuranosyl)-2,6-dihydro-7H-8-thia-2,3,5,6-tetraazabenzo[CD]cyclopenta[H]azulen-7-one] displayed an EC50 in assay [2] of under 30 µM.
